Data: patent US20060247249A1 (priority 2005, published 2006)
Structures can show the parent of a compound that is named as a salt.

Columns and labels:
α1-adrenoceptor = settings: background statement; cited from earlier work
α1B adrenoceptor = target: T1, α1B adrenoceptor (Rattus norvegicus, UniProt P15823); experiment: Radioligand binding, [3H] prazosin displacement, rat liver membranes; settings: read-out: Affinity for α1B (Rat Liver), Ki
T1 construct: from tissue; host or cells: rat liver membranes
T1 sequence (P15823 1-515): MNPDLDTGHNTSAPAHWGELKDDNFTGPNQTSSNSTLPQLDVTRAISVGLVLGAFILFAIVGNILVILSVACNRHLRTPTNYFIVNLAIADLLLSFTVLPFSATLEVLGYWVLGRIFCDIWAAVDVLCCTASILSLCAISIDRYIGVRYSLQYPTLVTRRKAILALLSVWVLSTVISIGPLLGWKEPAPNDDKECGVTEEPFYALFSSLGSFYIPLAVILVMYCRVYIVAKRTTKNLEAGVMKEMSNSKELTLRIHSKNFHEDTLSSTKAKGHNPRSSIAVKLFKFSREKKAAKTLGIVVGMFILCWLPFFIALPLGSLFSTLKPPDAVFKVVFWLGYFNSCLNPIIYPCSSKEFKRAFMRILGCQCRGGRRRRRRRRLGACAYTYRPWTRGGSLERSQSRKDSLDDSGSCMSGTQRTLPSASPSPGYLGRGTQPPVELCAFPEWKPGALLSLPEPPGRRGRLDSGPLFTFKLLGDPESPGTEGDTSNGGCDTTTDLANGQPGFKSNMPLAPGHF
Method: (§1) Receptor binding assays were performed using native α-adrenoceptors. The affinity of different compounds for α1A and α1B adrenoceptor subtypes was evaluated by studying their ability to displace specific [^3H] prazosin binding from the membranes of rat submaxillary and liver respectively (Michel et al, Br J. Pharmacol.; 1989; 98:883). The binding assays were performed according to U'Prichard et al. (Eur J Pharmacol., 1978; 50:87) with minor modifications.
(§2) Submaxillary glands were isolated immediately after sacrifice. The liver was perfused with buffer (Tris HCl 50 mM, NaCl 100 mM, 10 mM EDTA pH 7.4). The tissues were homogenised in 10 volumes of buffer (Tris HCl 50 mM, NaCl 100 mM, 10 mM EDTA pH 7.4). The homogenate was filtered through two layers of wet gauge and filtrate was centrifuged at 500 g for 10 min. The supernatant was subsequently centrifuged at 40,000 g for 45 min. The pellet thus obtained was resuspended in the same volume of assay buffer (Tris HCl 50 mM, 5 mM EDTA pH 7.4) and were stored at −70° C. until the time of assay.
(§3) The membrane homogenates (150-250 μg protein) were incubated in 250 μl of assay buffer (Tris HCl 50 mM, EDTA 5 mM, pH 7.4) at 24-25° C. for 1 hour. Non specific binding was determined in the presence of 300 nM prazosin. The incubation was terminated by vacuum filtration over GF/B fibre filters. The filters were then washed with ice cold 50 mM Tris HCl buffer (pH 7.4). The filtermats were dried and bound radioacivity retained on filters was counted. The IC50 and Kd were estimated by using the non linear curve fitting program using G Pad Prism software. The value of inhibition constant Ki was calculated from competitive binding studies by using Cheng & Prusoff equation (Cheng & Prusoff, Biochem Pharmacol, 1973,22: 3099), Ki=IC50/(1+L/Kd) where L is the concentration of [^3H] prazosin used in the particular experiment (Table I).

α1A adrenoceptor = target: T2, α1A adrenoceptor (Rattus norvegicus, UniProt P43140); experiment: Radioligand binding, [3H] prazosin displacement, rat submaxillary membranes; settings: for Ki: [3H] prazosin displacement, rat submaxillary membranes, read-out: Affinity for α1A (Rat Submaxillary), Ki; for α1B/α1A: ratio of binding affinities, rat liver vs rat submaxillary
T2 construct: from tissue; host or cells: rat submaxillary gland membranes
T2 sequence (P43140 1-466): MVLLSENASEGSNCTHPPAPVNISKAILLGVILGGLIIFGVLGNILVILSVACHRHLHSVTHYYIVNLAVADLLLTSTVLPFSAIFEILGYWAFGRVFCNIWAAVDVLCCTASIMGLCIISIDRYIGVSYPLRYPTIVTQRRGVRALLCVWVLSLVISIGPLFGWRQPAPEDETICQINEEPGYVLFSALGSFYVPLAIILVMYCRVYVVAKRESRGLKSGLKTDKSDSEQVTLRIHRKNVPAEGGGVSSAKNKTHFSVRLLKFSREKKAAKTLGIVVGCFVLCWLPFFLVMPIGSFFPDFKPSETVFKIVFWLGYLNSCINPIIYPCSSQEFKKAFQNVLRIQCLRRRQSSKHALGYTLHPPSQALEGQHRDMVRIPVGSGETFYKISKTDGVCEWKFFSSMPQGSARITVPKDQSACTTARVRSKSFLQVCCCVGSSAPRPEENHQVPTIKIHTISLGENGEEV
Method: as §1, §2, §3

spleen (α1B) = target: T3, spleen (α1B) (Rattus norvegicus, UniProt P15823); experiment: In vitro functional study, isolated rat spleen, antagonism of phenylepinephrine contraction; assay type: biochemical; settings: compound at 0.1, 1 and 10 μM
T3 construct: from tissue; host or cells: isolated rat spleen (male Wistar)
T3 sequence (P15823 1-515): T1 sequence (P15823 1-515)
From the text: (§4) In order to study selectivity of action of these compounds towards different α-adrenoceptor subtypes, the ability of these compounds to antagonise aorta (α1D), prostate (α1A) and spleen (α1B) was studied. Aorta, prostrate and spleen tissues were isolated from urethane anaesthetized (1.5 g/kg) male wister rats. Isolated tissues were mounted in organ bath containing Krebs Henseleit buffer of the following composition (mM): NaCl 118; KCl 4.7; CaCl2 2.5; MgSO4 7H2O 1.2; NaHCO3 25; KH2PO4 1.2; glucose 11.5. Buffer was maintained at 37° C. and aereated with a mixture of 95% O2 and 5% CO2. A resting tension of 2 g (aorta) or 1 g (spleen and prostate) was applied to tissues. Contractile response was monitored using a force displacement transducer and recorded on chart recorders. Tissues were allowed to equilibrate for 2 hours. At the end of equilibration period, concentration response curves to norepinephrine (aorta) and phenylepinephrine (spleen and prostate) were obtained in the absence and presence of tested compound (at concentration of 0.1, 1 and 10 μM). Antagonist affinity was calculated and expressed as pKB values in Table II.

aorta (α1D) = target: T4, aorta (α1D) (Rattus norvegicus, UniProt P23944); experiment: In vitro functional study, isolated rat aorta, antagonism of norepinephrine contraction; assay type: biochemical; settings: compound at 0.1, 1 and 10 μM
T4 construct: Isolated tissues were mounted in organ bath containing Krebs Henseleit buffer; from tissue; host or cells: isolated rat aorta (male Wistar)
T4 sequence (P23944 1-561): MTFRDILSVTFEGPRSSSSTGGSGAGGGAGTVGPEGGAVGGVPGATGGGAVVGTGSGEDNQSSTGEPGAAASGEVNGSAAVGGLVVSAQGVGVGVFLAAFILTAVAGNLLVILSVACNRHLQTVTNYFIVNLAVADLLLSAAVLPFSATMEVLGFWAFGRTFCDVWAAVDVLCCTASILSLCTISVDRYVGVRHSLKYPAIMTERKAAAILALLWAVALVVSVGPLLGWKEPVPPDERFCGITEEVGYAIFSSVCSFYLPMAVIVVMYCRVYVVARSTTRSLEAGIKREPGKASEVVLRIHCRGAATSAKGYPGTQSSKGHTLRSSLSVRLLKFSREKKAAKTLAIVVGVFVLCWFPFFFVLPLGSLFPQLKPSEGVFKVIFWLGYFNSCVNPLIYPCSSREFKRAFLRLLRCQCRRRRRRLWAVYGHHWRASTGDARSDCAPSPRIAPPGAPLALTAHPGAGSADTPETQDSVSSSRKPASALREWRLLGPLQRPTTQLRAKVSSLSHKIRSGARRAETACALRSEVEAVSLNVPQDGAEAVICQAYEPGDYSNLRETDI
From the text: as §4

prostate (α1A) = target: T5, prostate (α1A) (Rattus norvegicus, UniProt P43140); experiment: In vitro functional study, isolated rat prostate, antagonism of phenylepinephrine contraction; assay type: biochemical
T5 construct: from tissue; host or cells: isolated rat prostate (male Wistar)
T5 sequence (P43140 1-466): T2 sequence (P43140 1-466)
From the text: as §4

| Compound | α1-adrenergic blocking activity (pKi) (α1-adrenoceptor) | Ki (α1B adrenoceptor) [nM] | Ki (α1A adrenoceptor) [nM] | α1B/α1A (α1A adrenoceptor) | α1B (pKB) (spleen (α1B)) | α1D (pKB) (aorta (α1D)) | Selectivity α1D/α1A (prostate (α1A); functional assays, aorta vs prostate) | Selectivity α1B/α1A (prostate (α1A); functional assays, spleen vs prostate) | α1A (pKB) (prostate (α1A); rat prostate, phenylepinephrine, compound at 0.1, 1 and 10 μM) |
| --- | --- | --- | --- | --- | --- | --- | --- | --- | --- |
| COc1cc2nc(N3CCN(C(=O)c4ccco4)CC3)nc(N)c2cc1OC [prazosin] | > 8 | – | – | – | – | – | – | – | – |
| COc1ccccc1N1CCN(CC(O)CNC(=O)CCCC(=O)O)CC1 (centres unmarked) [Compound No. 12] | – | > 10000 | > 1000 | 1 | – | – | – | – | – |
| 1-Carboxycyclohex-4-ene-2-[N-{3-(2-ethoxyphenyl)piperazin-1-yl}propyl]carboxamide [Compound No. 1] | – | > 1000 | 20 | >50 | 8.16 | 7.24 | 9.5 | 1.15 | 8.22 |
| CC(C)Oc1ccccc1N1CCN(CCCNC(=O)C2CC=CCC2C(=O)O)CC1 (centres unmarked) [Compound No. 2, 1-Carboxy cyclohex-4-ene-2-[N-{3-(2-isopropoxyphenyl)piperazin-1-yl}propyl]carboxamide] | – | > 1000 | 19 | >53 | – | – | – | – | – |
| COc1ccccc1N1CCN(CC(O)CNC(=O)C2CC=CCC2C(=O)O)CC1 (centres unmarked) [Compound No. 3] | – | > 1000 | > 1000 | – | – | – | – | – | – |
| O=C(O)C1CC=CCC1C(=O)NCC(O)CN1CCN(c2ccccc2O)CC1 (centres unmarked) [Compound No. 4] | – | 9740 | 1890 | 5 | – | – | – | – | – |
| CC(C)Oc1ccccc1N1CCN(CC(O)CNC(=O)C2CC=CCC2C(=O)O)CC1 (centres unmarked) [Compound No. 5, 1-Carboxy cyclohex-4-ene-2-[N-{3-(2-isopropoxyphenyl)piperazin-1-yl}-2-hydroxypropyl]carboxamide] | – | 1760 | 21 | 84 | – | – | – | – | – |
| 1-Carboxy cyclohex-4-ene-2-[N-{3-(2-ethoxyphenyl)piperazin-1yl}-2-hydroxyphenyl]carboxamide [Compound No. 6] | – | 1240 | 398 | 3 | – | – | – | – | – |
| COC(=O)CCCC(=O)NCCCN1CCN(c2ccccc2OC)CC1 [hydrochloride] | – | > 1000 | 139 | >7 | – | – | – | – | – |
| 1-Carboxymethylcyclohex-4-ene-2-[N-{3-(2-isopropoxyphenyl)piperazin-1-yl}-propyl]carboxamide hydrochloride [Compound No. 11] | – | 99 | 3.15 | 31 | – | – | – | – | – |
| CC(C)Oc1ccccc1N1CCN(CCCNC(=O)CCCC(=O)O)CC1 | – | 2100 | 777 | 3 | – | – | – | – | – |
| O=C(O)C1CC=CCC1C(=O)NCCCN1CCN(c2ccccc2O)CC1 (centres unmarked) [Compound No. 8, 1-Carboxy cyclohex-4-ene-2-[N-{3-(2-hydroxyphenyl)piperazin-1-yl}propyl]carboxamide] | – | 5080 | 593 | 9 | – | – | – | – | – |
| O=C(O)CCCC(=O)NCCCN1CCN(c2ccccc2O)CC1 [Compound No. 7, 5-[N-{3-(2-hydroxyphenyl)piperazin-1-yl}]-1-aminopropyl-5-oxo-pentan-1-oic acid] | – | 13000 | 12600 | 1 | – | – | – | – | – |
